PubChem BioAssay AID1259407 (Chemical Carcinogenesis Research Information System (CCRIS), 2018)
Active and inactive are the calls of the source. No rule for the calls is given here.

Test system: CCRIS mutagenicity, Ames/micronucleus/aberration tests
Test: CCRIS mutagenicity studies
[1] = Test System: AMES SALMONELLA TYPHIMURIUM, Strain/Indicator: TA98, Metabolic Activation: NONE, Method: PREINCUBATION
[2] = Test System: AMES SALMONELLA TYPHIMURIUM, Strain/Indicator: TA100, Metabolic Activation: NONE, Method: PREINCUBATION
[3] = Test System: AMES SALMONELLA TYPHIMURIUM, Strain/Indicator: TA100, Metabolic Activation: NONE, Method: STANDARD PLATE

Measured: mutagenic call

Brc1ccccc1
inactive: End Point: IN VITRO CHROMOSOMAL ABERRATIONS, Test System: CHINESE HAMSTER OVARY CELLS, Metabolic Activation: NONE inactive; negative | End Point: IN VITRO CHROMOSOMAL ABERRATIONS, Test System: CHINESE HAMSTER OVARY CELLS, Metabolic Activation: RAT, LIVER, S-9, AROCLOR 1254 inactive; negative | Test System: AMES SALMONELLA TYPHIMURIUM, Strain/Indicator: TA98, Metabolic Activation: HAMSTER, LIVER, S-9, AROCLOR 1254, Method: PREINCUBATION inactive; negative | [1] inactive; negative | Test System: AMES SALMONELLA TYPHIMURIUM, Strain/Indicator: TA98, Metabolic Activation: RAT, LIVER, S-9, AROCLOR 1254, Method: PREINCUBATION inactive; negative | Test System: AMES SALMONELLA TYPHIMURIUM, Strain/Indicator: TA100, Metabolic Activation: HAMSTER, LIVER, S-9, AROCLOR 1254, Method: PREINCUBATION inactive; negative | [2] inactive; negative | Test System: AMES SALMONELLA TYPHIMURIUM, Strain/Indicator: TA100, Metabolic Activation: RAT, LIVER, S-9, AROCLOR 1254, Method: PREINCUBATION inactive; negative | Test System: AMES SALMONELLA TYPHIMURIUM, Strain/Indicator: TA1535, Metabolic Activation: HAMSTER, LIVER, S-9, AROCLOR 1254, Method: PREINCUBATION inactive; negative | Test System: AMES SALMONELLA TYPHIMURIUM, Strain/Indicator: TA1535, Metabolic Activation: NONE, Method: PREINCUBATION inactive; negative | Test System: AMES SALMONELLA TYPHIMURIUM, Strain/Indicator: TA1535, Metabolic Activation: RAT, LIVER, S-9, AROCLOR 1254, Method: PREINCUBATION inactive; negative | Test System: AMES SALMONELLA TYPHIMURIUM, Strain/Indicator: TA1537, Metabolic Activation: HAMSTER, LIVER, S-9, AROCLOR 1254, Method: PREINCUBATION inactive; negative | Test System: AMES SALMONELLA TYPHIMURIUM, Strain/Indicator: TA1537, Metabolic Activation: NONE, Method: PREINCUBATION inactive; negative | Test System: AMES SALMONELLA TYPHIMURIUM, Strain/Indicator: TA1537, Metabolic Activation: RAT, LIVER, S-9, AROCLOR 1254, Method: PREINCUBATION inactive; negative

CC(C)(C)c1ccc(C(=O)ON(OCc2ccccc2)C(=O)c2ccccc2)cc1
active: [3] active; positive

Cc1ncc(CNC(=O)N(CCCl)N=O)c(N)n1
active: Test System: AMES SALMONELLA TYPHIMURIUM, Strain/Indicator: TA98, Metabolic Activation: NONE, Method: STANDARD PLATE active; positive | [3] active; positive | Test System: E. COLI, Strain/Indicator: WP2 (HCR), Metabolic Activation: NONE, Method: STANDARD PLATE active; positive

NN1C(=O)c2ccccc2C1=O
inactive: Test System: AMES SALMONELLA TYPHIMURIUM, Strain/Indicator: TA97A, Metabolic Activation: NONE, Method: STANDARD PLATE inactive; negative | Test System: AMES SALMONELLA TYPHIMURIUM, Strain/Indicator: TA97A, Metabolic Activation: RAT, LIVER, S-9, AROCLOR 1254, Method: STANDARD PLATE inactive; negative | [3] inactive; negative | Test System: AMES SALMONELLA TYPHIMURIUM, Strain/Indicator: TA100, Metabolic Activation: RAT, LIVER, S-9, AROCLOR 1254, Method: STANDARD PLATE inactive; negative | Test System: AMES SALMONELLA TYPHIMURIUM, Strain/Indicator: TA102, Metabolic Activation: NONE, Method: STANDARD PLATE inactive; negative | Test System: AMES SALMONELLA TYPHIMURIUM, Strain/Indicator: TA102, Metabolic Activation: RAT, LIVER, S-9, AROCLOR 1254, Method: STANDARD PLATE inactive; negative | Test System: AMES SALMONELLA TYPHIMURIUM, Strain/Indicator: TA104, Metabolic Activation: NONE, Method: STANDARD PLATE inactive; negative | Test System: AMES SALMONELLA TYPHIMURIUM, Strain/Indicator: TA104, Metabolic Activation: RAT, LIVER, S-9, AROCLOR 1254, Method: STANDARD PLATE inactive; negative

Nc1ncnc2c1nc(-c1ccc([N+](=O)[O-])cc1)n2-c1ccc([N+](=O)[O-])cc1
active: Test System: AMES SALMONELLA TYPHIMURIUM, Strain/Indicator: TA98(1,8-DNP), Metabolic Activation: NONE, Method: PREINCUBATION active; positive | Test System: AMES SALMONELLA TYPHIMURIUM, Strain/Indicator: TA98(1,8-DNP), Metabolic Activation: RAT, LIVER, S-9, PCB, Method: PREINCUBATION active; positive | Test System: AMES SALMONELLA TYPHIMURIUM, Strain/Indicator: TA98(NR), Metabolic Activation: NONE, Method: PREINCUBATION active; positive | Test System: AMES SALMONELLA TYPHIMURIUM, Strain/Indicator: TA98(NR), Metabolic Activation: RAT, LIVER, S-9, PCB, Method: PREINCUBATION active; positive | [1] active; positive | Test System: AMES SALMONELLA TYPHIMURIUM, Strain/Indicator: TA98, Metabolic Activation: RAT, LIVER, S-9, PCB, Method: PREINCUBATION active; positive | [2] active; positive | Test System: AMES SALMONELLA TYPHIMURIUM, Strain/Indicator: TA100, Metabolic Activation: RAT, LIVER, S-9, PCB, Method: PREINCUBATION active; positive | Test System: AMES SALMONELLA TYPHIMURIUM, Strain/Indicator: YG1020, Metabolic Activation: NONE, Method: PREINCUBATION active; positive | Test System: AMES SALMONELLA TYPHIMURIUM, Strain/Indicator: YG1020, Metabolic Activation: RAT, LIVER, S-9, PCB, Method: PREINCUBATION active; positive | Test System: AMES SALMONELLA TYPHIMURIUM, Strain/Indicator: YG1021, Metabolic Activation: NONE, Method: PREINCUBATION active; positive | Test System: AMES SALMONELLA TYPHIMURIUM, Strain/Indicator: YG1021, Metabolic Activation: RAT, LIVER, S-9, PCB, Method: PREINCUBATION active; positive | Test System: AMES SALMONELLA TYPHIMURIUM, Strain/Indicator: YG1024, Metabolic Activation: NONE, Method: PREINCUBATION active; positive | Test System: AMES SALMONELLA TYPHIMURIUM, Strain/Indicator: YG1024, Metabolic Activation: RAT, LIVER, S-9, PCB, Method: PREINCUBATION active; positive | Test System: AMES SALMONELLA TYPHIMURIUM, Strain/Indicator: YG1025, Metabolic Activation: NONE, Method: PREINCUBATION active; positive | Test System: AMES SALMONELLA TYPHIMURIUM, Strain/Indicator: YG1025, Metabolic Activation: RAT, LIVER, S-9, PCB, Method: PREINCUBATION active; positive | Test System: AMES SALMONELLA TYPHIMURIUM, Strain/Indicator: YG1026, Metabolic Activation: NONE, Method: PREINCUBATION active; positive | Test System: AMES SALMONELLA TYPHIMURIUM, Strain/Indicator: YG1026, Metabolic Activation: RAT, LIVER, S-9, PCB, Method: PREINCUBATION active; positive | Test System: AMES SALMONELLA TYPHIMURIUM, Strain/Indicator: YG1029, Metabolic Activation: NONE, Method: PREINCUBATION active; positive | Test System: AMES SALMONELLA TYPHIMURIUM, Strain/Indicator: YG1029, Metabolic Activation: RAT, LIVER, S-9, PCB, Method: PREINCUBATION active; positive
inactive: Test System: AMES SALMONELLA TYPHIMURIUM, Strain/Indicator: TA100(1,8-DNP), Metabolic Activation: NONE, Method: PREINCUBATION inactive; negative | Test System: AMES SALMONELLA TYPHIMURIUM, Strain/Indicator: TA100(1,8-DNP), Metabolic Activation: RAT, LIVER, S-9, PCB, Method: PREINCUBATION inactive; negative | Test System: AMES SALMONELLA TYPHIMURIUM, Strain/Indicator: TA100(NR), Metabolic Activation: NONE, Method: PREINCUBATION inactive; negative | Test System: AMES SALMONELLA TYPHIMURIUM, Strain/Indicator: TA100(NR), Metabolic Activation: RAT, LIVER, S-9, PCB, Method: PREINCUBATION inactive; negative

c1cc2c3c(cccc3c1)-c1c-2c2ccccc2c2ccccc12
inactive: Test System: HUMAN H1A1V2 CELLS, Strain/Indicator: TK LOCUS, Metabolic Activation: NONE, Method: SUSPENSION/PLATE inactive; negative
